pIC50: −log10 of the molar value.
Legend:
human recombinant HDAC1 = biological target: T1, human recombinant HDAC1 (Homo sapiens, UniProt Q13547); test: HDAC1 enzyme activity inhibition (HDAC1 Fluorimetric Drug Discovery Assay Kit, in vitro); format: biochemical; conditions: samples at 100, 1000 and 10000 nM
T1 construct: purchased Enzolifesciences BML-SE456
Experimental: (§1) A HDAC enzyme inhibitory capacity of a test material was measured by using HDAC1 Fluorimetric Drug Discovery Assay Kit (Enzolifesciences: BML-AK511) and HDAC6 human recombinant (Calbiochem: 382180). For a HDAC1 assay, samples were treated at a concentration of 100, 1000 and 10000 nM. For a HDAC6 assay, samples were treated at a concentration of 0.1, 1, 10, 100 and 1000 nM.
(§2) For the test on the HDAC1 enzyme activity, human recombinant HDAC1 (BML-SE456) was used as a zymogen and Fluor de Lys®-SIRT1 (BNL-KI177) was used as a substrate. A 5-fold dilution of the compound was divided into a 96-well plate, after which 0.3 μg of the enzyme and […] of the substrate were inserted into each well and subjected to reaction at 37° C. for 60 minutes, such that Fluor de Lys® Developer II (BML-K1176) was inserted thereinto and subjected to reaction for 30 minutes and finished. After that, a fluorescence value (Ex 360, Em 460) was measured with a multi-plate reader (FlexStation 3, Molecular Device). An experiment on HDAC6 enzyme was conducted in accordance with the same protocol as in the HDAC1 enzyme activity test method by using human recombinant HDAC6 (382180) of Calbiochem Inc. For final result values, each IC50 value was calculated with GraphPad Prism 4.0 program.

human recombinant HDAC6 = biological target: T2, human recombinant HDAC6 (Homo sapiens, UniProt Q9UBN7); test: HDAC6 enzyme activity inhibition (fluorimetric, in vitro); format: biochemical; conditions: samples at 0.1, 1, 10, 100 and 1000 nM
T2 construct: purchased Calbiochem 382180
T2 sequence (Q9UBN7 1-1215): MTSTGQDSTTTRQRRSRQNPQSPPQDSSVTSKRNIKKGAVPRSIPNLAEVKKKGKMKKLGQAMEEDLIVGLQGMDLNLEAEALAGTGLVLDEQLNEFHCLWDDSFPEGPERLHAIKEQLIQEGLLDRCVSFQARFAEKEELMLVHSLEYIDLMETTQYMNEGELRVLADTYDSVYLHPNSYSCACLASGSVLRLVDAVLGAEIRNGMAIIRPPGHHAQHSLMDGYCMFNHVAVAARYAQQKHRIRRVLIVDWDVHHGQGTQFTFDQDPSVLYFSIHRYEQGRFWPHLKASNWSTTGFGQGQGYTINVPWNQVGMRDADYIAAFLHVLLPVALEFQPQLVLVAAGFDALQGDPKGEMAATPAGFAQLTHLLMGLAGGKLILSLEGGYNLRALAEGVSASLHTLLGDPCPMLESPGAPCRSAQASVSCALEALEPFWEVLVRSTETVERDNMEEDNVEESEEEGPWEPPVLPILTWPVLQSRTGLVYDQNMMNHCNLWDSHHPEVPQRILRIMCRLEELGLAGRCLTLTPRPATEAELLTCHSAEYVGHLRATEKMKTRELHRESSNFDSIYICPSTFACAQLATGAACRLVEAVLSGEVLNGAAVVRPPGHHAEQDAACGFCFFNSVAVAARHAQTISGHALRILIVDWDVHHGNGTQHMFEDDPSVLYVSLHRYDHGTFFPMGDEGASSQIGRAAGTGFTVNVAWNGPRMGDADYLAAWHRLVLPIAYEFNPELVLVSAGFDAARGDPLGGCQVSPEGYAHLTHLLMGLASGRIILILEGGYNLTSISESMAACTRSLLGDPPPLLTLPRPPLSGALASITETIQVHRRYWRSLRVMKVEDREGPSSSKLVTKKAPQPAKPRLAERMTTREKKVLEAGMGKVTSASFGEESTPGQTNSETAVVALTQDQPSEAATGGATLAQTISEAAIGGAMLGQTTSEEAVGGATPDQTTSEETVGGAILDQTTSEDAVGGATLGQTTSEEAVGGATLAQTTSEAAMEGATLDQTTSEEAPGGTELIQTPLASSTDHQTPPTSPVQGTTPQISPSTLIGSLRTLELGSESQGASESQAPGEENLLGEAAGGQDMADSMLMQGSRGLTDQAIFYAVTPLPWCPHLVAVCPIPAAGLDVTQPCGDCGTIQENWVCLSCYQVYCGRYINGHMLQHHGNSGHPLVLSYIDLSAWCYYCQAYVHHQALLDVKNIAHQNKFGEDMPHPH
Experimental: as §1, §2

T1 sequence (Q13547 whole entry): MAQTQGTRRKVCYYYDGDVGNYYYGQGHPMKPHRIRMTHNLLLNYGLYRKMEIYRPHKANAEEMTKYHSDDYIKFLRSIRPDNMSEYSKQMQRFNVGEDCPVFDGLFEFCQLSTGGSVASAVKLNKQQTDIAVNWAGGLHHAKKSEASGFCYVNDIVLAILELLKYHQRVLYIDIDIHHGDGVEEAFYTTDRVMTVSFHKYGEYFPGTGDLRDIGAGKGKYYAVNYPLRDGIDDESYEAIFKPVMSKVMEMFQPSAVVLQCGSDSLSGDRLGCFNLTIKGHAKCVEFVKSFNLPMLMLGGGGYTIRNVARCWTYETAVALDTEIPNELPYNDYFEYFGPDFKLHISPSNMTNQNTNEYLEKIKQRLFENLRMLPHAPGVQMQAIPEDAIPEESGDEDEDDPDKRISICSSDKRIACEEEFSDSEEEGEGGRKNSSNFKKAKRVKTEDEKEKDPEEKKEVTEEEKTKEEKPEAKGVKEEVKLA

Structure (SMILES) | pIC50 (human recombinant HDAC1) | pIC50 (human recombinant HDAC6)
O=C(NC1CCS(=O)(=NC(=O)C(F)(F)F)CC1)N(Cc1ccc(-c2nnc(C(F)F)o2)cc1F)c1ccccc1 (stereo not drawn) [Compound 58, N-(4-(3-(4-(5-(difluoromethyl)-1,3,4-oxadiazol-2-yl)-2-fluorobenzyl)-3-phenylureido)-1-oxidotetrahydro-2H-thiopyran-1-yliden)-2,2,2-trifluoroacetamide] | < 5.00 | 6.59
N=S1(=O)CCN(S(=O)(=O)N(Cc2ccc(-c3nnc(C(F)F)o3)cc2F)c2ccc(F)cc2)CC1 [Compound 78, N-[[4-[5-(difluoromethyl)-1,3,4-oxadiazol-2-yl]-2-fluoro-phenyl]methyl]-N-(4-fluorophenyl)-1-imino-1-oxo-1,4-thiazinan-4-sulfonamide] | < 5.00 | 7.10
N=S1(=O)CCN(c2c(N(Cc3ncc(-c4nnc(C(F)F)o4)cc3F)c3ccccc3)c(=O)c2=O)CC1 [Compound 61, 3-(((5-(5-(difluoromethyl)-1,3,4-oxadiazol-2-yl)-3-fluoropyridin-2-yl)methyl)(phenyl)amino)-4-(1-imino-1-oxidothiomorpholino)cyclobut-3-en-1,2-dione] | < 5.00 | 7.53
N=S1(=O)CCC(C(=O)N(Cc2ccc(-c3nnc(C(F)F)o3)cc2F)c2ccccc2)CC1 (stereo not drawn) [Compound 8, N-(4-(5-(difluoromethyl)-1,3,4-oxadiazol-2-yl)-2-fluorobenzyl)-1-imino-N-phenyltetrahydro-2H-thiopyran-4-carboxamide 1-oxide] | < 5.00 | 6.71
N=S1(=O)CCN(C(=O)N(Cc2ncc(-c3nnc(C(F)F)o3)cc2F)c2cc(F)ccc2F)CC1 [Compound 46, N-((5-(5-(difluoromethyl)-1,3,4-oxadiazol-2-yl)-3-fluoropyridin-2-yl)methyl)-N-(2,5-difluorophenyl)-1-iminothiomorpholin-4-carboxamide 1-oxide] | < 5.00 | 7.18
N=S1(=O)CCN(C(=O)N(Cc2ccc(-c3nnc(C(F)F)o3)cc2F)c2ccccc2F)CC1 [Compound 56, N-(4-(5-(difluoromethyl)-1,3,4-oxadiazol-2-yl)-2-fluorobenzyl)-N-(2-fluorophenyl)-1-iminothiomorpholin-4-carboxamide 1-oxide] | < 5.00 | 7.14
N=S1(=O)CCN(C(=O)N(Cc2ccc(-c3nnc(C(F)F)o3)cc2F)c2cc(F)ccc2F)CC1 [Compound 33, N-(4-(5-(difluoromethyl)-1,3,4-oxadiazol-2-y1)-2-fluorobenzyl)-N-(2,5-difluorophenyl)-1-iminothiomorpholin-4-carboxamide 1-oxide] | < 5.00 | 7.29
N=S1(=O)CC2(CN(C(=O)N(Cc3ccc(-c4nnc(C(F)F)o4)cc3F)c3ccccc3)C2)C1 [Compound 92, N-[[4-[5-(difluoromethyl)-1,3,4-oxadiazol-2-yl]-2-fluoro-phenyl]methyl]-2-imino-2-oxo-N-phenyl-2lambda6-thia-6-azaspiro[3.3]heptan-6-carboxamide] | < 5.00 | 7.03
CS(=O)(=O)N=S1(=O)CCN(C(=O)N(Cc2ccc(-c3nnc(C(F)F)o3)cc2F)c2ccccc2)CC1 [Compound 37, N-(4-(5-(difluoromethyl)-1,3,4-oxadiazol-2-yl)-2-fluorobenzyl)-1-((methylsulfonyl)imino)-N-phenylthiomorpholin-4-carboxamide 1-oxide] | < 5.00 | 7.21
N=S1(=O)CCN(S(=O)(=O)N(Cc2ccc(-c3nnc(C(F)F)o3)cn2)c2ccccc2)CC1 [Compound 19, N-((5-(5-(difluoromethyl)-1,3,4-oxadiazol-2-yl)pyridin-2-yl)methyl)-1-imino-N-phenylthiomorpholin-4-sulfonamide 1-oxide] | < 5.00 | 7.71
N=S1(=O)CCN(C(=O)N(Cc2ccc(-c3nnc(C(F)F)o3)cc2F)c2cccs2)CC1 [Compound 12, N-(4-(5-(difluoromethyl)-1,3,4-oxadiazol-2-yl)-2-fluorobenzyl)-1-imino-N-(thiophen-2-yl)thiomorpholin-4-carboxamide 1-oxide] | < 5.00 | 7.20
COC(=O)N=S1(=O)CCN(C(=O)N(Cc2ccc(-c3nnc(C(F)F)o3)cc2F)c2ccccc2)CC1 [Compound 38, Methyl (4-((4-(5-(difluoromethyl)-1,3,4-oxadiazol-2-yl)-2-fluorobenzyl)(phenyl)carbamoyl)-1-oxidothiomorpholin-1-ylidene)carbamate] | < 5.00 | 7.17
N=S1(=O)CCN(C(=O)N(Cc2ccc(-c3nnc(C(F)F)o3)cc2F)c2ccc(F)cc2)CC1 [Compound 63, N-[[4-[5-(difluoromethyl)-1,3,4-oxadiazol-2-yl]-2-fluoro-phenyl]methyl]-N-(4-fluorophenyl)-1-imino-1-oxo-1,4-thiazinan-4-carboxamide] | < 5.00 | 7.00
N=S1(=O)CCN(C(=O)N(Cc2ccc(-c3nnc(C(F)(F)F)o3)cn2)c2ccccc2)CC1 [Compound 9, 1-imino-N-phenyl-N-((5-(5-(trifluoromethyl)-1,3,4-oxadiazol-2-yl)pyridin-2-yl)methyl)thiomorpholine-4-carboxamide 1-oxide] | < 5.00 | 6.55

The remaining lines, values ahead:

pIC50 (human recombinant HDAC1) | pIC50 (human recombinant HDAC6) | Structure (SMILES)
< 5.00 | 7.39 | CS(=O)(=O)N=S1(=O)CCN(C(=O)N(Cc2ccc(-c3nnc(C(F)F)o3)cn2)c2ccccc2)CC1 [Compound 53, N-((5-(5-(difluoromethyl)-1,3,4-oxadiazol-2-yl)pyridin-2-yl)methyl)-1-((methylsulfonyl)imino)-N-phenylthiomorpholin-4-carboxamide 1-oxide]
< 5.00 | 7.57 | N=S1(=O)CCN(C(=O)N(Cc2ccc(-c3nnc(C(F)F)o3)cn2)c2cccc(F)c2)CC1 [Compound 17]
< 5.00 | 7.33 | CS(=N)(=O)C1CN(C(=O)N(Cc2ccc(-c3nnc(C(F)F)o3)cn2)c2cccc(F)c2)C1 (stereo not drawn) [Compound 90, N-[[5-[5-(difluoromethyl)-1,3,4-oxadiazol-2-yl]-2-pyridyl]methyl]-N-(3-fluorophenyl)-3-(methylsulfonimidoyl)azetidin-1-carboxamide]
< 5.00 | 6.62 | N=S1(=O)CCN(C(=O)N(Cc2cnc(-c3nnc(C(F)F)o3)cn2)c2cccc(F)c2)CC1 [Compound 81, N-[[5-[5-(difluoromethyl)-1,3,4-oxadiazol-2-yl]pyrazin-2-yl]methyl]-N-(3-fluorophenyl)-1-imino-1-oxo-1,4-thiazinan-4-carboxamide]
< 5.00 | 6.89 | N=S1(=O)CCN(C(=O)N(Cc2ccc(-c3nnc(C(F)F)o3)cn2)c2ccccc2F)CC1 [Compound 57]
< 5.00 | 7.39 | N=S1(=O)CCN(C(=O)N(Cc2ccc(-c3nnc(C(F)F)o3)cn2)c2ccc(F)c(F)c2)CC1 [Compound 7, N-((5-(5-(difluoromethyl)-1,3,4-oxadiazol-2-yl)pyridin-2-yl)methyl)-N-(3,4-difluorophenyl)-1-iminothiomorpholin-4-carboxamide 1-oxide]
< 5.00 | 7.36 | N=S1(=O)CCN(C(=O)N(Cc2ccc(-c3nnc(C(F)F)o3)cc2F)c2cccc(F)c2)CC1 [Compound 13, N-(4-(5-(difluoromethyl)-1,3,4-oxadiazol-2-yl)-2-fluorobenzyl)-N-(3-fluorophenyl)-1-iminothiomorpholin-4-carboxamide 1-oxide]
